# From patent US12528821B2, “pH-dependent composition matters useful for study and diagnosis of alzheimer's disease” (Purdue Research Foundation, priority 2019, dated 2026)
# Columns and labels:
# [1] = pH-sensitivity: fluorescence intensity at various pH conditions; format: physicochemical
# Description: The cell culture medium was treated with dilute HCl and NaOH solutions to obtain different solutions with pH of 1.0 to 9.0 for the assay. […] Different dilutions for each pH condition was prepared at concentrations of 0.5, 1.0, 2.0, and 5.0 μM in a 96-well plate.
# [2] = Atomic Force Microscopy analysis of aggregation; format: physicochemical; details: compared with non-conjugated Aβ1-42
# Description: AFM sample preparation: The manufacturer's protocol was followed for sample preparation, image acquiring and analysis.
# 1 mM Aβ solution was prepared by adding HFIP directly to the vial (0.5 mg Aβ or hAβ^pH or recombinant Aβ(M1-42) in 93.35 μL HFIP). The peptide should be completely dissolved. The solution was incubated at room temperature (RT) for at least 30 min. HFIP was allowed to evaporate in the open tubes overnight in the fume hood or using Argon/Nitrogen gas and then dry down under high vacuum for 1 h without heating to remove any remaining traces of HFIP and moisture. The resulting peptide thin clear film formed at the bottom of the tubes. The tubes containing dried peptides were stored at −20° C. until further use.
# Prior to use, tube containing peptide film was allowed to come to RT. Then, 5 mM Aβ DMSO stock was prepared by adding 20 μL fresh dry DMSO to 0.45 mg. Pipette thoroughly, scraping down the sides of the tube near the bottom to ensure complete resuspension of peptide film. Vortex well (˜30 sec) and pulse in a microcentrifuge to collect solution at the bottom of the tube. Sonicate 5 mM Aβ DMSO solution for 10 min. Use this preparation as the starting material for unaggregated Aβ and oligomeric Aβ. For oligomer formation, samples were incubated at 4° C. for 24 hr.
# Sample preparation was done with proper sterile technique with sterile media and MilliQ-water. […]
# [3] = test system: N9 microglial cells; test: Phagocytosis assay with live cells (IncuCyte live-cell imaging); format: cell-based, mouse
# Description: (§1) To visualize the phagocytosis of hAβ^pH in live microglial cells, immortalized human microglial clone 3 (HMC3) cells and mouse BV2 and N9 microglial cells were treated with 0.1-5.0 μM doses of hAβ^pH and live-cell images were acquired every 30 minutes for 24 hours on the IncuCyte™ ZOOM Live Content Imaging system (FIGS. 3A-3B). The green channel on the IncuCyte™ ZOOM system allows for excitation and emission wavelengths of 460/524 nm and thus the hAβ^pH reporter was optimal for use on the instrument.
# (§2) Cells were seeded at 5000 cells per well (200 μL per well) in a 96-well flat bottom plate (Falcon) for approximately 16 hours (overnight). The lyophilized hAβ^pH conjugate was dissolved in the culture medium for each cell type and filtered using 0.22 μm syringe filter. The adherent cells (BV2, N9, HMC3) were treated with a final concentration of hAβ^pH at 0, 0.1, 0.5, 1.0, 2.0, and 5.0 μM by replacing one-half of the culture medium (100 μL) with 2× concentration. Two technical replicates were used for each treatment concentration. The plates were immediately placed in the IncuCyte® S3 Live-Cell Analysis System (Essen BioScience) and four images per well were captured at 30-minute time intervals for 24 hours. The fluorescence intensity, cell confluence, and the integrated fluorescence intensity data was obtained and analyzed using the GraphPad Prism® software. The total hAβ^pH phagocytosis per concentration was calculated as:
# [formula] wherein, Total Integrated Intensity is defined as the total sum of hAβ^pH's fluorescent intensity in the image and Relative Total Integrated Intensity is defined as Total Integrated Intensity (t)—Total Integrated Intensity (t=0) for each concentration. Flow Cytometry Analysis of BV-2 Microglia Phagocytosis
# [4] = test system: BV2 microglial cells; test: as above; format: cell-based, mouse
# Description: Cells were seeded at 5000 cells per well (200 μL per well) in a 96-well flat bottom plate (Falcon) for approximately 16 hours (overnight). […] Two technical replicates were used for each treatment concentration. The plates were immediately placed in the IncuCyte® S3 Live-Cell Analysis System (Essen BioScience) and four images per well were captured at 30-minute time intervals for 24 hours. The fluorescence intensity, cell confluence, and the integrated fluorescence intensity data was obtained and analyzed using the GraphPad Prism® software.
# Flow Cytometry Analysis of BV-2 Microglia Phagocytosis
# [5] = test system: HMC3 cells; test: as above; format: cell-based, human
# Description: as §1
# as §2, with “The plates were immediately placed in the IncuCyte® S3 Live-Cell Analysis System (Essen BioScience) and four images per well were captured at 30-minute time intervals for 24 hours.” left out, “as: […]” for “as:”
# [6] = test system: BV2 microglial cells; test: Flow cytometry analysis of BV-2 microglia phagocytosis; format: cell-based, mouse; details: 0.5 and 1.0 μM for 1 hour
# Description: BV2 microglial cells were seeded at a density of 250 k cells/well in a 6-well plate for around 14 hr overnight. […] After 2 hours, the plate was brought to the hood, placed on ice to stop phagocytosis, and cell culture medium containing hAβ^pH was aspirated. The cells were washed once with cold PBS. Next, the cells were treated with ice cold PBS with 2 mM EDTA for 2 mins on ice to initiate detachment of the cells from the wells. The cells were fully detached from the wells with very gentle pipetting and transferred into falcon tubes. The cells were centrifuged once at 1400 RPM for 3 mins. The PBS/EDTA supernatant was aspirated out and the cell pellets were re-suspended in FACS buffer (PBS, 25 mM HEPES, 2 mM EDTA, and 2% FBS). Five minutes before analysis of each sample tube, Propidium Iodide (PI) was added to the sample (40 ng/1 mL cell suspension) for staining of live/dead cells. […] The filed were then analyzed on FlowJo V10 software. Gating strategy is indicated in FIG. 4 on the main manuscript.
# [7] = test system: HMC3, BV2, and N9 microglial cells; test: Confocal imaging of actin filaments and nuclei in paraformaldehyde-fixed phagocytic microglial cells; format: cell-based, human, mouse; details: 5.0 μM for 2 hours, fixed with 4% paraformaldehyde
# Description: Fixation of cells and using target protein markers along with hAβ^pH can inform us about the molecular mechanisms involved in microglial phagocytosis with confocal microscopy. To confirm that the hAβ^pH reporter can maintain its fluorescence in fixed cells, HMC3, BV2, and N9 microglial cells were fixed with common cell staining reagents. The cells were treated with 5.0 μM of hAβ^pH for 2 hours and fixed with 4% paraformaldehyde followed by the addition of the phalloidin dye to visualize cellular integrity via the staining of the F-actin filaments (FIG. 5).
# For labeling the cells with Phalloidin and DAPI, 20,000 cells/250 μL were plated in 14 mm microwells of the 35 mm glass bottom dishes (MatTek #P35G-1.5-14-C) and kept overnight. The cells were treated with 5.0 μM hAβ^pH for 2 hours on the next day. Then the medium was aspirated, and cells were fixed with 4% paraformaldehyde for 20 mins, and then gently washed once with PBS. Phalloidin-iFluor 555 reagent was diluted at a concentration of 1 μL/mL in PBS and added to the fixed cells for 10 minutes for staining the actin filaments. To label the nuclei, DAPI was diluted at a concentration of 1 μL/mL. […] Fluorescence images of phagocytic microglial cells were captured using 40× and 60× objectives on the Nikon AR-1 MP confocal laser microscope. […]
# [8] = test system: HMC3, N9, and BV2 cells; test: Confocal imaging of intracellular acidic organelles (LysoTracker) in fixed phagocytic microglial cells; format: cell-based, human, mouse; details: 5.0 μM, 2-hour time point
# From the text: To visualize the localization of the hAβ^pH within the microglial cell cytoplasm, the acidic intracellular compartments were labeled with LysoTracker™ DND-99 that stains the lysosomal organelles of the cells. […] It has been recently shown that microglia in vitro recognize and phagocytose Aβ peptides through scavenger receptors,^8 Toll-Like Receptor 2 (TLR2),^17 Cluster of Differentiation 14 (CD14),^18 and Triggering Receptors Expressed on Myeloid Cells 2 (TREM2).^19 Thus, our hAβ^pH reporter serves as a valuable chemical tool in delineating the role of several receptor proteins involved in the Aβ uptake of live and fixed microglial cells using cell staining reagents and by using specific antibodies such as anti-CD14, anti-TREM2, etc. Additionally, the role of inflammation, including the effects of inflammatory cytokines, such as IL-la and TNF-α, on Aβ clearance is not resolved. Thus, our hAβ^pH will be a valuable for studying hAβ^pH phagocytosis under the influence of inflammatory cytokines or small molecule inhibitors.
# LysoTracker® Red DND-99 was used for labeling the intracellular organelles of the cells to observe localization of hAβ^pH sensors inside the cells after phagocytosis. […] Fluorescence images of phagocytic microglial cells were captured using 40× and 60× objectives on the Nikon AR-1 MP confocal laser microscope. […]
# [9] = test system: primary mouse microglia; test: Phagocytic uptake by primary microglia ex vivo (confocal, flow cytometry); format: cell-based
# [10] = test system: primary immunopanned rat astrocytes; test: Uptake by primary immunopanned astrocytes in serum-free conditions; format: cell-based; details: fixed, GFAP stained
# [11] = test system: microglia and astrocytes in rat hippocampal tissue sections; test: Phagocytosis assay in rat hippocampal tissue slices (in situ); details: IBA1+ and GFAP+ staining
# [12] = test system: cortical IBA1+ microglia and GFAP+ astrocytes; test: Stereotaxic microinjection in the somatosensory cortex, staining of fixed tissue sections; format: in vivo, mouse
# [13] = test system: retinal IBA1+ microglia and GFAP+ astrocytes; test: Subretinal injection, in vivo uptake by retinal microglia and astrocytes; details: rat
# [14] = test system: microglia and astrocytes in the cerebral cortex; test: In vivo two-photon imaging of the barrel cortex through a cranial window after topical application; set-up: species or system mouse
# [15] = P7 mouse, periventricular white matter, 72 h
substance,measurement,setting,value
RODO-conjugated hAβ^pH: conjugate of the Aβ1-42 peptide with pHrodo-Red (RODO) fluorophore,pH range of increased fluorescence,"[1]; 0.5, 1.0, 2.0, and 5.0 μM, FIG. 1C",1.0-7.0
"hAβ^pH: pH-dependent fluorescent conjugate of human Aβ1-42 peptide linked to amine-reactive Protonex Green 500, SE (PTXG) fluorophore",fluorescence intensity at the physiological pH of 7.4,[1]; pH 7.4,did not show an increased fluorescence intensity
same,ability to aggregate (AFM),[2],aggregate similar to the non-conjugated Aβ
same,intracellular fluorescence beyond 18 hours,[3]; 5.0 μM,began to decrease
same,time of peak intracellular green fluorescence,[3]; 5.0 μM,12 to 18 h
same,intracellular fluorescence (phagocytosis) over time,[3]; 1.0 and 2.0 μM doses,gradual increase in intracellular fluorescence
same,intracellular fluorescence during the 18-hour time period,[4]; 5.0 μM dose,increased intracellular fluorescence
same,intracellular fluorescence (phagocytosis) over time,[4]; 1.0 and 2.0 μM doses,gradual increase in intracellular fluorescence
same,phagocytosis,[5]; 5.0 μM,increased phagocytosis
same,time period of increased intracellular fluorescence,"[5]; 1.0 and 2.0 μM doses, followed by gradual decrease",1 to 8 h
same,green fluorescence in live (PI-) cells (flow cytometry),[6],green fluorescence is measured
same,"fluorescence retained in fixed cells (confocal, phalloidin)",[7],showed green fluorescence
same,co-localization with LysoTracker dye,[8],confirmed the presence of hAβ^pH within the acidic phagosomes
same,green fluorescence in live (ZV-) cells (flow cytometry),"[9]; 0.5, 1.0, and 2.0 μM for 1 hour",green fluorescence is measured
same,"phagocytosis ex vivo (confocal, LysoTracker Red)","[9]; defined, reduced-serum media, fixed cells",phagocytose Aβ^pH ex vivo
same,phagocytosis by astrocytes,[10],also phagocytose Aβ^pH
same,phagocytosis in situ,[11],phagocytosed by both microglia and astrocytes in situ
same,phagocytic uptake at the 24 h timepoint,"[12]; P7 mouse, periventricular white matter, 24 h",phagocytic uptake of Aβ^pH by IBA1^+ microglia and GFAP^+ astrocytes
same,fluorescence in GFAP+ astrocytes at 72 h,[12]; [15],do not show any green fluorescence
same,fluorescence in IBA1+ microglia at 72 h,[12]; [15],bright green fluorescence
same,fluorescence within microglia vs astrocytes,[12]; pia and white matter regions,more Aβ^pH uptake by microglia compared to astrocytes
same,fluorescence in retinal astrocytes (quantification),"[13]; 3 time points, FIG. 11G",No fluorescence was detected
same,phagocytosis by GFAP+ retinal astrocytes in vivo,[13]; FIG. 11F,phagocytose Aβ^pH in vivo
same,fluorescence in cell somata after topical application,"[14]; mouse barrel cortex, two-photon imaging",fluorescence increases in cell somata
same,"colocalization with IBA1, CD68, and GFAP","[14]; perfusion-fixed 1.5 to 3 hours after imaging, cortical slices",most Aβ^pH is taken up by microglia and astrocytes in vivo
